Assay results: the supplement of paper PMC10307832

Legend:
Assay in all cases: relative viability (nuclei count vs DMSO), 5 days (fraction); higher = more cells survive
TPCA-1 + Olaparib = compound: C1=CC(=CC=C1C2=CC(=C(S2)NC(=O)N)C(=O)N)F [TPCA-1] + O=C(c1cc(Cc2n[nH]c(=O)c3ccccc23)ccc1F)N1CCN(C(=O)C2CC2)CC1 [Olaparib] (partner 8 µM)
Summary of the method: (§1)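 Relative viability is defined as nuclei in treated wells over nuclei in vehicle wells. Duplicate plates were run and medians reported. Lung cancer cell lines in 1536-well plates were dosed by pin tool one day after seeding, with one drug or with a fixed anchor-drug dose plus five library-drug doses (not always all listed) in √10 steps, and nuclei were counted after 5 days.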

Lestaurtinib + Olaparib = compound: C[C@]12O[C@H](C[C@]1(O)CO)n1c3ccccc3c3c4c(c5c6ccccc6n2c5c31)CNC4=O [Lestaurtinib] + O=C(c1cc(Cc2n[nH]c(=O)c3ccccc23)ccc1F)N1CCN(C(=O)C2CC2)CC1 [Olaparib] (partner 8 µM)
Summary of the method: as §1

TPCA-1 + OSI-027 = compound: C1=CC(=CC=C1C2=CC(=C(S2)NC(=O)N)C(=O)N)F [TPCA-1] + COc1cccc2cc(-c3nc([C@H]4CC[C@H](C(=O)O)CC4)n4ncnc(N)c34)[nH]c12 [OSI-027] (partner 0.5 µM)
Summary of the method: as §1

[1] = compound: C[C@]12O[C@H](C[C@]1(O)CO)n1c3ccccc3c3c4c(c5c6ccccc6n2c5c31)CNC4=O [Lestaurtinib] + CS(=O)(=O)N1CCN(Cc2cc3nc(-c4cccc5[nH]ncc45)nc(N4CCOCC4)c3s2)CC1 [Pictilisib] (partner 1 µM)
Summary of the method: as §1

Cell Line | relative viability (TPCA-1 + Olaparib; first compound 0.04 µM) | relative viability (TPCA-1 + Olaparib; first compound 0.1265 µM) | relative viability (TPCA-1 + Olaparib; first compound 0.4 µM) | relative viability (TPCA-1 + Olaparib; first compound 1.265 µM) | relative viability (TPCA-1 + Olaparib; first compound 4 µM) | relative viability (Lestaurtinib + Olaparib; first compound 0.005 µM) | relative viability (Lestaurtinib + Olaparib; first compound 0.01581 µM) | relative viability (Lestaurtinib + Olaparib; first compound 0.05 µM) | relative viability (Lestaurtinib + Olaparib; first compound 0.1581 µM) | relative viability (Lestaurtinib + Olaparib; first compound 0.5 µM) | relative viability (TPCA-1 + OSI-027; first compound 0.04 µM) | relative viability (TPCA-1 + OSI-027; first compound 0.1265 µM) | relative viability (TPCA-1 + OSI-027; first compound 0.4 µM) | relative viability (TPCA-1 + OSI-027; first compound 1.265 µM) | relative viability (TPCA-1 + OSI-027; first compound 4 µM) | relative viability ([1]; first compound 0.005 µM) | relative viability ([1]; first compound 0.01581 µM) | relative viability ([1]; first compound 0.05 µM) | relative viability ([1]; first compound 0.1581 µM) | relative viability ([1]; first compound 0.5 µM)
201T | 0.857 | 0.827 | 0.841 | 0.83 | 0.87 | 0.89 | 0.712 | 0.882 | 0.937 | 0.552 | 0.781 | 0.751 | 0.782 | 0.669 | 0.484 | 0.677 | 0.691 | 0.64 | 0.601 | 0.533
PC-14 | 0.295 | 0.324 | 0.308 | 0.327 | 0.341 | 0.252 | 0.243 | 0.242 | 0.238 | 0.179 | 0.954 | 0.717 | 0.951 | 0.593 | 0.341 | 0.639 | 0.49 | 0.283 | 0.254 | 0.171
NCI-H1650 | 0.893 | 0.826 | 0.758 | 0.822 | 0.863 | 0.596 | 0.79 | 0.787 | 1.22 | 0.631 | 0.639 | – | 0.682 | 0.798 | 0.531 | 0.594 | 0.662 | 0.566 | 0.463 | 0.153
NCI-H727 | 0.86 | 0.69 | 0.666 | 0.57 | 0.534 | 0.812 | 0.604 | 0.731 | – | 0.678 | 0.603 | 0.43 | 0.664 | 0.369 | 0.541 | 0.396 | 0.566 | 0.278 | 0.409 | 0.229
NCI-H1792 | 0.432 | 0.281 | 0.382 | 0.352 | 0.202 | 0.593 | 0.495 | 0.434 | 0.267 | 0.164 | 0.701 | 0.653 | 0.696 | 0.618 | 0.564 | 0.316 | 0.302 | 0.243 | 0.141 | 0.129
COR-L23 | 0.393 | 0.329 | 0.286 | 0.303 | 0.325 | 0.374 | 0.428 | 0.37 | 0.339 | 0.156 | 0.749 | 0.706 | 0.823 | 0.683 | 0.286 | 0.688 | 0.723 | – | 0.332 | 0.208
ChaGo-K-1 | 0.434 | 0.321 | 0.445 | 0.374 | 0.221 | 0.424 | 0.464 | 0.427 | 0.387 | 0.279 | 0.652 | 0.518 | 0.617 | 0.577 | 0.276 | 0.726 | 1.15 | 0.663 | 0.421 | 0.356
HOP-62 | 0.333 | 0.552 | 0.317 | 0.338 | 0.14 | 0.287 | 0.763 | 0.515 | 0.525 | 0.16 | 0.872 | 0.748 | 0.96 | 0.574 | 0.716 | 0.742 | 0.693 | 0.642 | 0.604 | 0.427
NCI-H1915 | 0.28 | 0.266 | 0.26 | 0.274 | 0.219 | 0.259 | 0.285 | 0.273 | 0.296 | 0.143 | 0.695 | 0.563 | 0.676 | 0.509 | 0.467 | 0.945 | 0.966 | 0.654 | 0.418 | 0.282
BEN | 1.08 | 0.977 | 1.32 | 1.04 | 0.869 | 1.24 | 1.07 | 1.1 | 0.853 | 0.521 | 0.261 | 0.269 | 0.303 | 0.346 | 0.242 | 0.641 | 0.693 | 0.452 | 0.481 | 0.281
NCI-H1437 | 0.665 | 0.637 | 0.611 | 0.591 | 0.618 | 0.671 | 0.662 | 0.571 | 0.67 | 0.553 | 0.888 | 0.89 | 0.908 | 0.921 | 0.652 | 0.466 | 0.491 | 0.375 | 0.245 | 0.14
EMC-BAC-2 | 0.486 | 0.461 | 0.572 | 0.355 | 0.245 | 0.531 | 0.466 | 0.493 | 0.356 | 0.29 | 0.383 | 0.38 | 0.45 | 0.221 | 0.265 | 0.58 | 0.504 | 0.427 | 0.32 | 0.239
NCI-H647 | 0.763 | 0.437 | 0.66 | 0.525 | 0.358 | 0.67 | 0.67 | 0.186 | 0.211 | 0.108 | 0.633 | 0.573 | 0.602 | 0.55 | 0.245 | 0.413 | 0.289 | 0.197 | 0.193 | 0.105
LXF-289 | 1.09 | 0.94 | 1.12 | 1.06 | 0.735 | 1.09 | 1.08 | 0.753 | 0.852 | 0.172 | 0.86 | 0.674 | 0.763 | 0.603 | 0.347 | 0.715 | 0.756 | 0.475 | 0.523 | 0.247
LOU-NH91 | 0.885 | 0.846 | 0.922 | 0.94 | 0.773 | 0.894 | 0.903 | 0.89 | 0.712 | 0.531 | 0.75 | 0.662 | 0.735 | 0.793 | 0.73 | 0.539 | 0.482 | 0.517 | 0.444 | 0.314
NCI-H23 | 0.317 | 0.234 | 0.285 | 0.353 | 0.192 | 0.327 | 0.295 | 0.291 | 0.301 | 0.203 | 0.599 | 0.574 | 0.514 | 0.429 | 0.149 | 0.5 | 0.468 | 0.353 | 0.375 | 0.204
